Our source for the Ki values is BindingDB's records for doi:10.1021/jm970742b (University of Pennsylvania, 1998).

The target in the assay is Sodium-dependent dopamine transporter (Rattus norvegicus, UniProt P23977). Briefly: In vitro binding affinity towards dopamine transporter in rat striatal homogenate with [125I]IPT as the radioligand.

Molecules are shown by their SMILES.

Sequence of Sodium-dependent dopamine transporter (P23977 whole entry): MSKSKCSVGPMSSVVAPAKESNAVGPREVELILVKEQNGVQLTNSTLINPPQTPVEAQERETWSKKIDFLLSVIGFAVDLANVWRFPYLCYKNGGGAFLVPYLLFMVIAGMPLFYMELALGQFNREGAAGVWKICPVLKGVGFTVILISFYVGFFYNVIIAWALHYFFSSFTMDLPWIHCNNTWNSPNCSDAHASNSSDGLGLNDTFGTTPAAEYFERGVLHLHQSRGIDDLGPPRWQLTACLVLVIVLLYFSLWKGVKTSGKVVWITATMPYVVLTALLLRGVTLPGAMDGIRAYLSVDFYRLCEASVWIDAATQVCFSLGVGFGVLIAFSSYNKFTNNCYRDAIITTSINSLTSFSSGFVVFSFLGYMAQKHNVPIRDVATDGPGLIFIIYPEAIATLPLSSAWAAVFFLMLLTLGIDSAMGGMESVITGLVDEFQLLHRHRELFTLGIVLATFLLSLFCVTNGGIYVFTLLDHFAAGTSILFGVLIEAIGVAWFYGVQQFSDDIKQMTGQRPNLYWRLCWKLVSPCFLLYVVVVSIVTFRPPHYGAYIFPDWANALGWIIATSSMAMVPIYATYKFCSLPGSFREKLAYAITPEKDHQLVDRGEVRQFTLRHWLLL

The molecule `CN1C2CCC1[C@H](c1ccc(Cl)cc1)[C@H]2CN1CC[S][Re]2(=[O])[S]CC[N]2CC1` (stereo partly drawn) [2-[[2-[[[3-(4-chlorophenyl)-8-methyl-8-azabicyclo[3.2.1]oct-2-yl]methyl](2-mercaptoethyl)amino]ethyl]amino]ethanethiolato(3-)-oxo-[1R-(exo-exo)]-;2-{Oxo[N(R),N-bis(2-mercaptoethyl)ethylenediaminato]rhenium(V)methyl}-3-(4-chlorophenyl)tropane] returned an inhibitory constant (Ki) of 13.9 nM.

As to `CN1C2CCC1[C@H](c1ccc(Cl)cc1)[C@@H]2CN1CC[S][Re]2(=[O])[S]CC[N]2CC1` (stereo partly drawn) [2-[[2-[[[3-(4-chlorophenyl)-8-methyl-8-azabicyclo[3.2.1]oct-2-yl]methyl](2-mercaptoethyl)amino]ethyl]amino]ethanethiolato(3-)-oxo-[1R-(exo-exo)]-;2-{Oxo[N(S),N-bis(2-mercaptoethyl)ethylenediaminato]rhenium(V)methyl}-3-(4-chlorophenyl)tropane], the affinity corresponds to a Ki of 8.42 nM.
